Results on three molecules are retold here after article PMC10746543, “Design principles for cyclin K molecular glue degraders” (Nature Chemical Biology, 2023).

Where “and” joins values, the source holds several entries; their conditions need not be identical. Equal entries are not always repeated. Where two headings read alike, the source gives them in different places.

In experiment [1] the test system is cyclin K–eGFP degradation reporter. Description: Cyclin K reporter stability analysis (dual-color cyclin K–eGFP reporter). The class given is cell-based, human. In outline:
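A 5 h treatment of HEK293T–Cas9 cells expressing the degradation reporter preceded flow cytometry; eGFP over mCherry, normalized to DMSO.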

The next experiment deals with T1, CDK12–cyclin K and DDB1 (Homo sapiens, UniProt Q16531+Q9NYV4, K965R).
T1 construct: His6–CDK12 (a.a. 713–1,052); full-length or beta-propeller B domain deletion (ΔBPB: a.a. 396–705 deleted) constructs of His6–DDB1ΔBPB, StrepII–Avi–DDB1, or His6–Spy–DDB1; made in house; host or cells: Trichoplusia ni High Five insect cells (baculovirus)
T1 sequence (Q9NYV4 713-1052 K965R): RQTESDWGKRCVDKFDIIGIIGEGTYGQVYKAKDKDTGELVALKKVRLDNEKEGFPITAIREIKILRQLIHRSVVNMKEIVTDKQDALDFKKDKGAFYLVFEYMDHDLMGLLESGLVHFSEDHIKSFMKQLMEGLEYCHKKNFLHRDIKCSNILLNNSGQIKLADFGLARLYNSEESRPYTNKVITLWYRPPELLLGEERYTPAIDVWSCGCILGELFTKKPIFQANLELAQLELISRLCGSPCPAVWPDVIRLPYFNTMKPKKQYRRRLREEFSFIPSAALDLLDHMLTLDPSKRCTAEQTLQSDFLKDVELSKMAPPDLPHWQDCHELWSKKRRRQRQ
T1 sequence (O75909 1-267 partner): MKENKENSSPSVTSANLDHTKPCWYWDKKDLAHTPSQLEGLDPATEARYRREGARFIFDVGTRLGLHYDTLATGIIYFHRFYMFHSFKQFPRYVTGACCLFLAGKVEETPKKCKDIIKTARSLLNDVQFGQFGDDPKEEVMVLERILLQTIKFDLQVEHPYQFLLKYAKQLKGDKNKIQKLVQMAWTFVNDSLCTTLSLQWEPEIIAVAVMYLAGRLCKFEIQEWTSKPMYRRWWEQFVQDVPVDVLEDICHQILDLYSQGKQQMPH
T1 sequence (Q16531 whole entry): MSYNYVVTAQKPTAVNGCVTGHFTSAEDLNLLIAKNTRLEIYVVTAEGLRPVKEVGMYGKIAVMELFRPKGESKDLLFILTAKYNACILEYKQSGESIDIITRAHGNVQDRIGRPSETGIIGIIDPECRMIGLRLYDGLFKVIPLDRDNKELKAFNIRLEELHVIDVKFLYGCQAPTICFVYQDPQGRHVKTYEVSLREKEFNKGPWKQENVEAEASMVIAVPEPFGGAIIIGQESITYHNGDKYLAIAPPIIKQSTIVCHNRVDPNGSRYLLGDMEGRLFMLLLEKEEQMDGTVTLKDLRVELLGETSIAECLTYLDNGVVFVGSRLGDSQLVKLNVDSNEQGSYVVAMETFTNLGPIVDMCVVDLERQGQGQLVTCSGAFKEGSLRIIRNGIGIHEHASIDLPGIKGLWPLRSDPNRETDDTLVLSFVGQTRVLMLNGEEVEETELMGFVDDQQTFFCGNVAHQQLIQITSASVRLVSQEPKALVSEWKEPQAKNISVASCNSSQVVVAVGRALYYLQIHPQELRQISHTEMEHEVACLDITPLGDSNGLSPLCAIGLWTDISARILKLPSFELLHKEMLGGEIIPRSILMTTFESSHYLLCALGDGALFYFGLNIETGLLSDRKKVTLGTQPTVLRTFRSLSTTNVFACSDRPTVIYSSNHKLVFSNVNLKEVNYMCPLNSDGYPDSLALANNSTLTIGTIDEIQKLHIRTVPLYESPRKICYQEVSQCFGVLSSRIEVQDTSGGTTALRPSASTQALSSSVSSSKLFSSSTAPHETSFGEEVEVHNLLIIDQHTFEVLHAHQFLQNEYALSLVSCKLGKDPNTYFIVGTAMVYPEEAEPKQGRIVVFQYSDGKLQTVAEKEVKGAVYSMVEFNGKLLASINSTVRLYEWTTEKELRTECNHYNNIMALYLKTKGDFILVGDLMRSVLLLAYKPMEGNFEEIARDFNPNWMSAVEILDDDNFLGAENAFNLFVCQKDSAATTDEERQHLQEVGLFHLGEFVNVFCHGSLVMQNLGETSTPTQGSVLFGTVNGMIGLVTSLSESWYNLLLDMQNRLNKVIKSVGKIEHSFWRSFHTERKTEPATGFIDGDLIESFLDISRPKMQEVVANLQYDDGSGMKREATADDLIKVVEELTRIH
In words: TR-FRET ternary complex formation assay (compound titration). The class given is binding. As to conditions: for TR-FRET signal at compound concentration: replicate titrations. The procedure, abridged:
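Background fluorescence is reduced by reading 70 μs after excitation, and complex formation is followed as the 520:490 nm fluorescence ratio.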
For orientation: In TR-FRET formats the signal depends on donor and acceptor labels being close together.

In another experiment the test system is HEK293T cells. Description: Drug sensitivity assay (CellTiter-Glo viability) with or without MLN4924 pretreatment. The class given is cell-based, human. Conditions: Supplementary Table 2; for EC50: Homo sapiens, HEK-293T, HEK293T viability, 72 h, compound alone, read-out: Cellular assays EC50; for Toxicity rescue: MLN4924-mediated cytotoxicity rescue, 10 µM used where n.d. The procedure, abridged:
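First, cells (HEK293T–Cas9, 0.15 × 10^6 ml^−1) are exposed to DMSO or 100 nM MLN4924. Next, drugs follow at 2 h. Finally, CellTiter-Glo is read at day 3 and normalised to DMSO.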

Where [2] appears, read: source data sheet correlations, read-out: DC50.
Setting [3] is: in vitro complex formation, 50 nM CDK12–cyclin K, 100 nM DDB1, text and figures, read-out: TR-FRET EC50.
[4] abbreviates: sheet MOESM7, read-out: log TR-FRET EC50 (converted).
Where [5] appears, read: source data sheet correlations, read-out: TR-FRET EC50.

As a reminder, the DC50 is the concentration at which degradation of the target reaches its halfway point. A word on the EC50: it is the concentration giving half of the maximal effect. Consider `CN(C)C/C=C/C(=O)Nc1ccc(C(=O)N2CCC[C@@H](Nc3ncc(Cl)c(-c4c[nH]c5ccccc45)n3)C2)cc1` [THZ531, reference compound], for which, in experiment [1] (Supplementary Table 2, HEK293T cycK-eGFP reporter, 5 h, read-out: Cellular assays DC50), the DC50 is over 10000 nM. Also, the “TR-FRET signal at compound concentration 4.68 nM” value on CDK12–cyclin K and DDB1 (compound concentration 4.68 nM, raw replicate titration data) is 0.1294 and 0.1297. Also, on CDK12–cyclin K and DDB1 (compound concentration 21.6 nM, raw replicate titration data), the “TR-FRET signal at compound concentration 21.6 nM” value was 0.1203 and 0.1454. At CDK12–cyclin K and DDB1 (compound concentration 36 nM, raw replicate titration data), the “TR-FRET signal at compound concentration 36 nM” value was 0.1008 and 0.09563. In addition, the “TR-FRET signal at compound concentration 79.2001 nM” value at CDK12–cyclin K and DDB1 (compound concentration 79.2001 nM, raw replicate titration data) was 0.09205 and 0.08033. For the same molecule, at CDK12–cyclin K and DDB1 (compound concentration 158.4 nM, raw replicate titration data), the “TR-FRET signal at compound concentration 158.4 nM” value is 0.08734 and 0.07305. The “TR-FRET signal at compound concentration 309.6 nM” value on CDK12–cyclin K and DDB1 (compound concentration 309.6 nM, raw replicate titration data) was 0.08584 and 0.06932. Besides, the “TR-FRET signal at compound concentration 626.401 nM” value on CDK12–cyclin K and DDB1 (compound concentration 626.401 nM, raw replicate titration data) was 0.07997 and 0.06847. At CDK12–cyclin K and DDB1 (compound concentration 1252.8 nM, raw replicate titration data), the “TR-FRET signal at compound concentration 1252.8 nM” value is 0.0797 and 0.06911. Also, the “TR-FRET signal at compound concentration 2448 nM” value at CDK12–cyclin K and DDB1 (compound concentration 2448 nM, raw replicate titration data) was 0.07318 and 0.06928. For the same molecule, on CDK12–cyclin K and DDB1 (compound concentration 9936.01 nM, raw replicate titration data), the “TR-FRET signal at compound concentration 9936.01 nM” value is 0.07478 and 0.06588. Also, the “TR-FRET signal at compound concentration 20016 nM” value on CDK12–cyclin K and DDB1 (compound concentration 20016 nM, raw replicate titration data) is 0.07606 and 0.06434. Moreover, in the experiment on HEK293T cells, the half-maximal effective concentration (EC50) worked out at 271 nM and the Toxicity rescue is recorded as -22%.

With `CC[C@H](CO)Nc1nc(NCc2ccc(-c3ccccn3)c(=O)[nH]2)c2ncn(C(C)C)c2n1` [WX3], in experiment [1] (setting [2]), the DC50 turned out to be 23 nM. Besides, the “TR-FRET signal at compound concentration” value was 0.2972 and 0.3391 at CDK12–cyclin K and DDB1 (compound concentration 0.468 nM); 0.4654 and 0.4243 on CDK12–cyclin K and DDB1 (compound concentration 2.16 nM); 0.6432 and 0.6311 on CDK12–cyclin K and DDB1 (compound concentration 3.6 nM); 1.023 and 1.017 on CDK12–cyclin K and DDB1 (compound concentration 7.92001 nM); 1.68 and 1.67 at CDK12–cyclin K and DDB1 (compound concentration 15.84 nM); 2.537 and 2.526 on CDK12–cyclin K and DDB1 (compound concentration 30.96 nM). Further, the “TR-FRET signal at compound concentration” value is 3.223 and 3.119 on CDK12–cyclin K and DDB1 (compound concentration 62.6401 nM); 3.664 and 3.458 at CDK12–cyclin K and DDB1 (compound concentration 125.28 nM); 3.773 and 3.684 at CDK12–cyclin K and DDB1 (compound concentration 244.8 nM); 3.764 and 3.722 on CDK12–cyclin K and DDB1 (compound concentration 993.601 nM); 3.801 and 3.784 on CDK12–cyclin K and DDB1 (compound concentration 2001.6 nM). The EC50 is 21 ± 1 nM on CDK12–cyclin K and DDB1 (setting [3]); 21.4 nM at CDK12–cyclin K and DDB1 (setting [4]); 21.4 nM at CDK12–cyclin K and DDB1 (setting [5]); 179 nM with HEK293T cells. The Toxicity rescue in the experiment on HEK293T cells was 954%.

As to `CC[C@H](CO)Nc1nc(NCc2cnc(-c3ccccn3)cc2C2OCCO2)c2ncn(C(C)C)c2n1` [WX4], the DC50 in experiment [1] (setting [2]) came out at 365 nM. The “TR-FRET signal at compound concentration” value on CDK12–cyclin K and DDB1 (compound concentration 4.68 nM) was 0.2788 and 0.2836; at CDK12–cyclin K and DDB1 (compound concentration 21.6 nM) it was 0.5021 and 0.5027; at CDK12–cyclin K and DDB1 (compound concentration 36 nM), 0.8511 and 0.8473; at CDK12–cyclin K and DDB1 (compound concentration 79.2001 nM), 1.261 and 1.263; at CDK12–cyclin K and DDB1 (compound concentration 158.4 nM), 1.515 and 1.577; at CDK12–cyclin K and DDB1 (compound concentration 309.6 nM), 1.862 and 1.944. The “TR-FRET signal at compound concentration” value at CDK12–cyclin K and DDB1 (compound concentration 626.401 nM) was 2.0566 and 2.128; at CDK12–cyclin K and DDB1 (compound concentration 1252.8 nM), 2.108 and 2.242; on CDK12–cyclin K and DDB1 (compound concentration 2448 nM) it was 2.161 and 2.2916; on CDK12–cyclin K and DDB1 (compound concentration 9936.01 nM) it was 2.174 and 2.318; on CDK12–cyclin K and DDB1 (compound concentration 20016 nM), 2.132 and 2.191. Besides, the EC50 on CDK12–cyclin K and DDB1 (setting [3]) was 79 ± 6 nM; at CDK12–cyclin K and DDB1 (setting [4]) it was 78.5 nM; on CDK12–cyclin K and DDB1 (setting [5]), 78.5 nM; in the experiment on HEK293T cells, 1180 nM. Also, the Toxicity rescue in the experiment with HEK293T cells is 432%.
